Measured values published in patent US10640507B2, “PBD antibacterial agents” (KING'S COLLEGE LONDON, priority 2015, dated 2020).
Like-named read-outs stand apart in the source and are kept apart here.

Assays:
A. baumannii - AYE = format: cell-based; conditions: drug at 4×MIC
Method: (§1) 1. Grow bacteria overnight.
(§2) 2. Subculture into an autoclaved conical flask containing 10 ml of TSB to an OD of 0.01 (˜1×10^7 Cfu/ml for KP-M6).
(§3) 4. Take aliquots (100 μl) at timepoints (0, 1, 2, 4, 6, 24 hours) and carry out a serial dilution in PBS (to remove drug and to dilute bacteria to countable numbers).
(§4) 5. Use the serial dilution to perform a Miles Misra—i.e. Add 3×10 μl spots of each dilution onto an agar plate. Incubate overnight and count colonies on spots in the morning.
(§5) 6. Control: Subculture bacteria alongside samples but with no antibiotic added. Take aliquots from this at every time point (0, 1, 2, 4, 6, 24 hours) and perform Miles Misra on these too (as detailed in points 4 and 5 above).
(§6) 7. After the first experiment, if the counts seen on Miles-Misra were zero, total viable counts were determined by spreading 200 μl in a streak down the centre of a TSB agar plate, waiting for the liquid to be absorbed and then spreading over the plate and checking for growth inhibition at the sight of the original streak.
(§7) 8. The compound is considered bactericidal if the inoculum was reduced >3 log10 CFU/ml and bacteriostatic if inoculum was reduced by 0-3 log10 CFU/ml.
(§8) Three measurements were taken for each compound at each time point. These measurements were averaged and the standard deviation was also calculated.

A. baumannii - NCTC13424 = format: cell-based; conditions: drug at 4×MIC
Method: as §1, §2, §3, §4, §5, §6, §7, §8

[1] = test system: K. pneumonia - NCTC 13368; format: cell-based; conditions: drug at 4×MIC
Method: as §1, §2, §3, §4, §5, §6, §7, §8

[2] = test system: K. pneumonia - NCTC 13438; format: cell-based; conditions: drug at 4×MIC
Method: as §1, §2, §3, §4, §5, §6, §7, §8

E. coli gyrase = biological target: T1, E. coli gyrase (Escherichia coli, UniProt P0AES4+P0AES6); assay: Gyrase microplate assay; format: biochemical; conditions: agent 10-75 μM, FIG. 6
T1 construct: purchased Inspiralis (Norwich, UK) TRG01
Method: (§9) The effect of the antimicrobial agents on gyrase was assessed using E. coli gyrase microplate assay kit (# TRG01) and with S. aureus gyrase microplate assay kit (# SATRG01). The effect of topoisomerase IV using was assessed using E. coli Topo IV microplate assay kit (# TRIV01) and with the S. aureus Topo IV microplate assay kit (# SATRIV01). All of these assay kits were obtained from Inspiralis (Norwich, UK). These assay kits are supplied with the relevant enzyme, substrate and buffers.
(§10) 1. Rehydrate wells with 3×200 μl Wash buffer (diluted from 20× stock with ultra-pure water).
(§11) 2. Immobilise 100 μl of 500 nM TF01 oligo in each well (5 μl of 10 μM TF01 oligo in 95 μl wash buffer).
(§12) 3. Incubate 5 minutes at room temperature.
(§13) 4. Wash off excess oligo with 3×200 μl Wash buffer.
(§14) 5. Incubate 2U (0.4 μl stock) of gyrase with 0.75 μg of relaxed pN01 in a reaction volume of 30 μl at 37° C. for 30 minutes in assay buffer—This is the part agent is added therefore the reaction volume is adjusted to account for this.
(§15) 6. Add 100 μl TF buffer (diluted from 20× stock) to well and incubate for a further 30 minutes at room temperature to allow triplex formation.
(§16) 7. Remove liquid from well and wash with 3×200 μl TF buffer to wash away unbound plasmid.
(§17) 8. Stain with DNA detection dye (diluted to ix with T10 buffer). Add 200 μl per well and incubate for 10-20 minutes at room temperature.
(§18) 9. Mix well and read in fluorescence plate reader Excitation wavelength: 495 nm; Emission wavelength: 537 nm. Use 485/520 filters in plate reader in 231.
(§19) 10. If required 10 μl of sample can be used to run on 1% agarose gel.
(§20) As the reaction volume is 30 μl make concentrations at 30× greater than required so 1 μl of the appropriate concentration can be added to the reaction. For each agent concentrations from a range of 10-75 μM.
(§21) Xmin—minima among all data points
(§22) Xmax—maxima among all data points
(§23) Xi0-1—data point normalised between 0-1

S. aureus gyrase = biological target: T2, S. aureus gyrase (Staphylococcus aureus, UniProt P0A0K8+P20831); assay: Gyrase microplate assay; format: biochemical; conditions: agent 10-75 μM, FIG. 6
T2 construct: purchased Inspiralis (Norwich, UK) SATRG01
Method: as §9, §10, §11, §12, §13, §14, §15, §16, §17, §18, §19, §20, §21, §22, §23

T1 sequence (P0AES4 whole entry, one chain of several): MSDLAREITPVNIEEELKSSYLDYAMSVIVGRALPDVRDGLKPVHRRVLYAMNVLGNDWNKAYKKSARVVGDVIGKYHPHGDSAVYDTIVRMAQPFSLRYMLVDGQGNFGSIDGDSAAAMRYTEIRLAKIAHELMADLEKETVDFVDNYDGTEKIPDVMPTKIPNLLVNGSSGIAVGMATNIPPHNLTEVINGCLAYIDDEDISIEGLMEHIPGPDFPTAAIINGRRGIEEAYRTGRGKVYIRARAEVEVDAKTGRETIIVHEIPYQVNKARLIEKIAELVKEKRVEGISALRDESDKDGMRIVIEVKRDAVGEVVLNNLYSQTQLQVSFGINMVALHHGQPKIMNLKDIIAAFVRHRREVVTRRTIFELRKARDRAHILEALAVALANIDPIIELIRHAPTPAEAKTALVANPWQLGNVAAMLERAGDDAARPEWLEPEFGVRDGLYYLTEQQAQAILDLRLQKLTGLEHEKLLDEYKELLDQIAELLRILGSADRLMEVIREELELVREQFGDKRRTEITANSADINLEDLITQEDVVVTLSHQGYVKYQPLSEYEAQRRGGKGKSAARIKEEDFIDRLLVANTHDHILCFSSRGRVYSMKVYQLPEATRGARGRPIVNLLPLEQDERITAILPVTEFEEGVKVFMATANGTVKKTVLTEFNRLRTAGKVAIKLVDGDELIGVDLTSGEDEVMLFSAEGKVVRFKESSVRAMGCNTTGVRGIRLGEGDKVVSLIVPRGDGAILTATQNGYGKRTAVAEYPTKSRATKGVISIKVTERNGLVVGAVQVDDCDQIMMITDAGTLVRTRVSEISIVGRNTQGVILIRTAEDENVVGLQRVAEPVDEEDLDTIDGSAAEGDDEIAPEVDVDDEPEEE
T2 sequence (P0A0K8 whole entry): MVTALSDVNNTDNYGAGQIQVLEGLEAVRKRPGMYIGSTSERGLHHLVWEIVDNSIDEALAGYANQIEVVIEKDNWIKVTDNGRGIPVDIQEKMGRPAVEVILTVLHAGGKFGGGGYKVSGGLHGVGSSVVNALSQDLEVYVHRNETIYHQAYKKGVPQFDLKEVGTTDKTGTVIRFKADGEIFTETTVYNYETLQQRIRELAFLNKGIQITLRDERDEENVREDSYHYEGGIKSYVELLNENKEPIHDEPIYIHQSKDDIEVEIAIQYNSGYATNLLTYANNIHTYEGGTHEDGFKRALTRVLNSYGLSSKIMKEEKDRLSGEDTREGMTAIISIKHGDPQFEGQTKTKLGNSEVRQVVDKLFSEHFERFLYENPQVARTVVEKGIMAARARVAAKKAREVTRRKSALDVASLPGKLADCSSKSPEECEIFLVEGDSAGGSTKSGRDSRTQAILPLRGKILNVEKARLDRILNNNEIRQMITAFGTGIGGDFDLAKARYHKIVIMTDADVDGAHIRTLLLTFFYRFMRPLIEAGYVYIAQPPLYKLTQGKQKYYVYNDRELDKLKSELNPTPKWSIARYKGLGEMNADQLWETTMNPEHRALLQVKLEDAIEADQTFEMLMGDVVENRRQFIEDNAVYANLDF
T2 sequence (P20831 whole entry): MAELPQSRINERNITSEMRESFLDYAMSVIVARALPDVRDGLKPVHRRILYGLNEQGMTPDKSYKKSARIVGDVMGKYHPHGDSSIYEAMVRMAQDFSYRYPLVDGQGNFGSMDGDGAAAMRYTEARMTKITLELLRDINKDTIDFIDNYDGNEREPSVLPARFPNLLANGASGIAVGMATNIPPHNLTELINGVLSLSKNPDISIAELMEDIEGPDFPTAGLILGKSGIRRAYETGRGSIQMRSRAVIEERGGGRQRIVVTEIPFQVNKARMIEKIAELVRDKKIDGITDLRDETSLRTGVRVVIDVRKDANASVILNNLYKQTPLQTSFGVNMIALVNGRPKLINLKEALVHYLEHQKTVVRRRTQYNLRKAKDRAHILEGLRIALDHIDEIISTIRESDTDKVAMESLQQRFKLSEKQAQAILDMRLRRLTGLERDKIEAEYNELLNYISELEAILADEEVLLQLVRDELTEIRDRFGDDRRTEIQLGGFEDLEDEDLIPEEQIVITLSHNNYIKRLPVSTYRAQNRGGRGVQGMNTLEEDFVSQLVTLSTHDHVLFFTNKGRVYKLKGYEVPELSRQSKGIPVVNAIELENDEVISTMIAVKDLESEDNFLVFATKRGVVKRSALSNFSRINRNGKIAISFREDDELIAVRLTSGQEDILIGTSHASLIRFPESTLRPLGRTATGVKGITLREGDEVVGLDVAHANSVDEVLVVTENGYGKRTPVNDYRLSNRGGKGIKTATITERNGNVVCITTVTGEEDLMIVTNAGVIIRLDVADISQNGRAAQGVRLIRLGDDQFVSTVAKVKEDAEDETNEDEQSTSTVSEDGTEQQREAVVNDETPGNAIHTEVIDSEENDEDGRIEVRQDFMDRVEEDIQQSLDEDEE

COc1cc2c(cc1OCCCC(=O)Nc1cc(C(=O)Nc3ccc4sc(C(=O)N(C)C)cc4c3)n(C)c1)N=C[C@@H]1CCCN1C2=O [KMR-14-33, (S)—N-(2-(dimethylcarbamoyl)benzo[b]thiophen-5-yl)-4-(4-((7-methoxy-5-oxo-2,3,5,11a-tetrahydro-1H-benzo[e]pyrrolo[1,2-a][1,4]-diazepin-8-yl)oxy)butanamido)-1-methyl-1H-pyrrole-2-carboxamide]
Average (Log CFU/ml) (A. baumannii - AYE; time-point 1 hours): 0 CFU/ml
n = 1 (Log CFU/ml) (A. baumannii - AYE; time-point 1 hours): 0 CFU/ml
n = 2 (Log CFU/ml) (A. baumannii - AYE; time-point 1 hours): 0 CFU/ml
n = 3 (Log CFU/ml) (A. baumannii - AYE; time-point 1 hours): 0 CFU/ml
Average (Log CFU/ml) (A. baumannii - AYE; time-point 2 hours): 0 CFU/ml
n = 1 (Log CFU/ml) (A. baumannii - AYE; time-point 2 hours): 0 CFU/ml
n = 2 (Log CFU/ml) (A. baumannii - AYE; time-point 2 hours): 0 CFU/ml
n = 3 (Log CFU/ml) (A. baumannii - AYE; time-point 2 hours): 0 CFU/ml
Average (Log CFU/ml) (A. baumannii - AYE; time-point 4 hours): 29 CFU/ml
n = 1 (Log CFU/ml) (A. baumannii - AYE; time-point 4 hours): 0 CFU/ml
n = 2 (Log CFU/ml) (A. baumannii - AYE; time-point 4 hours): 0 CFU/ml
n = 3 (Log CFU/ml) (A. baumannii - AYE; time-point 4 hours): 85 CFU/ml
Average (Log CFU/ml) (A. baumannii - AYE; time-point 6 hours): 1334 CFU/ml
n = 1 (Log CFU/ml) (A. baumannii - AYE; time-point 6 hours): 0 CFU/ml
n = 2 (Log CFU/ml) (A. baumannii - AYE; time-point 6 hours): 0 CFU/ml
n = 3 (Log CFU/ml) (A. baumannii - AYE; time-point 6 hours): 4000 CFU/ml
Average (Log CFU/ml) (A. baumannii - AYE; time-point 24 hours): 6667.333 CFU/ml
n = 1 (Log CFU/ml) (A. baumannii - AYE; time-point 24 hours): 0 CFU/ml
n = 2 (Log CFU/ml) (A. baumannii - AYE; time-point 24 hours): 20000 CFU/ml
n = 3 (Log CFU/ml) (A. baumannii - AYE; time-point 24 hours): 0 CFU/ml
Average (Log CFU/ml) (A. baumannii - NCTC13424; time-point 1 hours): 1923.667 Log CFU/ml
n = 1 (Log CFU/ml) (A. baumannii - NCTC13424; time-point 1 hours): 0 Log CFU/ml
n = 2 (CFU/ml) (A. baumannii - NCTC13424; time-point 1 hours): 940 CFU/ml
n = 3 (CFU/mL) (A. baumannii - NCTC13424; time-point 1 hours): 4830 CFU/mL
Average (Log CFU/ml) (A. baumannii - NCTC13424; time-point 2 hours): 0 Log CFU/ml
n = 1 (Log CFU/ml) (A. baumannii - NCTC13424; time-point 2 hours): 0 Log CFU/ml
n = 2 (Log CFU/ml) (A. baumannii - NCTC13424; time-point 2 hours): 0 Log CFU/ml
n = 3 (Log CFU/ml) (A. baumannii - NCTC13424; time-point 2 hours): 0 Log CFU/ml
Average (Log CFU/ml) (A. baumannii - NCTC13424; time-point 4 hours): 0 Log CFU/ml
n = 1 (Log CFU/ml) (A. baumannii - NCTC13424; time-point 4 hours): 0 Log CFU/ml
n = 2 (Log CFU/ml) (A. baumannii - NCTC13424; time-point 4 hours): 0 Log CFU/ml
n = 3 (Log CFU/ml) (A. baumannii - NCTC13424; time-point 4 hours): 0 Log CFU/ml
Average (Log CFU/ml) (A. baumannii - NCTC13424; time-point 6 hours): 0 Log CFU/ml
n = 1 (Log CFU/ml) (A. baumannii - NCTC13424; time-point 6 hours): 0 Log CFU/ml
n = 2 (Log CFU/ml) (A. baumannii - NCTC13424; time-point 6 hours): 0 Log CFU/ml
n = 3 (Log CFU/ml) (A. baumannii - NCTC13424; time-point 6 hours): 0 Log CFU/ml
Average (Log CFU/ml) (A. baumannii - NCTC13424; time-point 24 hours): 2084 Log CFU/ml
n = 1 (CFU/mL) (A. baumannii - NCTC13424; time-point 24 hours): 6250 CFU/mL
n = 2 (Log CFU/ml) (A. baumannii - NCTC13424; time-point 24 hours): 0 Log CFU/ml
n = 3 (Log CFU/ml) (A. baumannii - NCTC13424; time-point 24 hours): 0 Log CFU/ml
Average (Log CFU/ml) ([1]; time-point 1 hours): 18850000 CFU/ml
n = 2 (Log CFU/ml) ([1]; time-point 1 hours): 36000000 CFU/ml
viable count ([1]; time-point 1 hours): 1.7e+06 CFU/mL
Average (CFU/ml) ([1]; time-point 2 hours): 505000 CFU/ml
n = 2 (Log CFU/ml) ([1]; time-point 2 hours): 900000 CFU/ml
viable count ([1]; time-point 2 hours): 110000 CFU/mL
Average (CFU/ml) ([1]; time-point 4 hours): 0 CFU/ml
n = 2 (CFU/ml) ([1]; time-point 4 hours): 0 CFU/ml
viable count ([1]; time-point 4 hours): 0 CFU/mL
Average (CFU/ml) ([1]; time-point 6 hours): 0 CFU/ml
n = 2 (CFU/ml) ([1]; time-point 6 hours): 0 CFU/ml
viable count ([1]; time-point 6 hours): 0 CFU/mL
Average (CFU/ml) ([1]; time-point 24 hours): 0 CFU/ml
n = 2 (CFU/ml) ([1]; time-point 24 hours): 0 CFU/ml
viable count ([1]; time-point 24 hours): 0 CFU/mL
Average (Log CFU/ml) ([2]; time-point 1 hours): 1000000 CFU/ml
n = 1 (Log CFU/ml) ([2]; time-point 1 hours): 1000000 CFU/ml
n = 2 (Log CFU/ml) ([2]; time-point 1 hours): 2000000 CFU/ml
n = 3 (Log CFU/ml) ([2]; time-point 1 hours): 1 CFU/ml
Average (Log CFU/ml) ([2]; time-point 2 hours): 34 CFU/ml
n = 1 (Log CFU/ml) ([2]; time-point 2 hours): 0 CFU/ml
n = 2 (Log CFU/ml) ([2]; time-point 2 hours): 100 CFU/ml
n = 3 (Log CFU/ml) ([2]; time-point 2 hours): 0 CFU/ml
Average (Log CFU/ml) ([2]; time-point 4 hours): 0 CFU/ml
n = 1 (Log CFU/ml) ([2]; time-point 4 hours): 0 CFU/ml
n = 2 (Log CFU/ml) ([2]; time-point 4 hours): 0 CFU/ml
n = 3 (Log CFU/ml) ([2]; time-point 4 hours): 0 CFU/ml
Average (Log CFU/ml) ([2]; time-point 6 hours): 0 CFU/ml
n = 1 (Log CFU/ml) ([2]; time-point 6 hours): 0 CFU/ml
n = 2 (Log CFU/ml) ([2]; time-point 6 hours): 0 CFU/ml
n = 3 (Log CFU/ml) ([2]; time-point 6 hours): 0 CFU/ml
Average (Log CFU/ml) ([2]; time-point 24 hours): 0 CFU/ml
n = 1 (Log CFU/ml) ([2]; time-point 24 hours): 0 CFU/ml
n = 2 (Log CFU/ml) ([2]; time-point 24 hours): 0 CFU/ml
n = 3 (Log CFU/ml) ([2]; time-point 24 hours): 0 CFU/ml

COc1cc2c(cc1OCCCC(=O)Nc1cc(C(=O)Nc3ccc4oc(C(=O)N5CCSCC5)cc4c3)n(C)c1)N=C[C@@H]1CCCN1C2=O [PP-A148, (S)-4-(4-((7-methoxy-5-oxo-2,3,5,11a-tetrahydro-1H-benzo-[e]pyrrolo[1,2-a][1,4]diazepin-8-yl)oxy)butanamido)-1-methyl-N-(2-(thiomorpholine-4-carbonyl)benzofuran-5-yl)-1H-pyrrole-2-carboxamide]
effect on gyrase (E. coli gyrase): inhibits
effect on gyrase (S. aureus gyrase): inhibits
